Data taken from patent US7449466B2, “Cyclic aminophenyl sulfamate derivative” (Aska Pharmaceutical Co., Ltd., priority 2003, dated 2008).

Columns and labels:
MCF-7 cells = assay: MCF-7 cell proliferation measurement (MTT) for examining estrogenic activity; type: cell-based, human; settings: 4 days, 570 nm
Procedure: (3) MCF-7 Cell Proliferation Measurement for Examining Estrogenic Activity:
Stimulation of MCF-7 cell proliferation induced by estrogenic activity of each test compound was measured.
MCF-7 cells were cultured in 10% fetal bovine serum (FBS)-containing RPMI 1640 medium which was free from Phenol Red, using a 75 cm^2 culture flask. Then the medium was changed to RPMI 1640 medium containing 10% of FBS from which emdogenous steroid had been eliminated by charcoal treatment but containing no Phenol Red. Renewing the medium every two days, the culture was continued for 4 days. By this step estrogen was removed from the MCF-7 cells.
The MCF-7 cells were seeded on 96-well plates, 2,000 cells per well, and cultured for 24 hours to immobilize the cells on the plate. After the cell immobilization, the medium in each well was changed to RPMI 1640 medium containing 10^−6M test compound and 10% of charcoal-treated FBS but containing no Phenol Red, and the culture was continued for further 4 days, during which the medium was changed every day to one newly prepared before the use. Also control wells to which no test compound was added were provided.
After the end of the culture, the cell proliferation was measured by MTT (3-(4,5-dimethylthiazol-2-yl)-2,5-diphenyl-2H-tetrazolium bromide; Sigma-Aldrich Japan Co.) method. That is, an MTT solution as dissolved in PBS at a concentration of 5 mg/mL was added to the 96-well plate accommodating the cells, at a rate of 10 μL/well, followed by 2 hours' incubation at 37° C. After the end of the incubation, the medium was removed and the formazan which was taken into the cells and changed was dissolved with 100 μL of dimethylsulfoxide. Absorbance of the formazan was measured at wavelength 570 nm, using a microplate reader, subtracting the 630 nm background.
As shown by the Table 3, absorbance values of the wells to which the test compounds were added were invariably less than 150% of the absorbance of the control well, and it was confirmed that the test compounds were free of estrogenic activity.

steroid sulfatase = target: T1, steroid sulfatase (Homo sapiens, UniProt P08842); assay: Steroid sulfatase inhibitory activity (in vitro), microsomal fraction of MCF-7 cells, [3H]estrone-3-sulfate hydrolysis; type: biochemical; set-up: microsomal fraction of MCF-7 human breast cancer cells was used; endogenous in cells; host or cells: MCF-7 human breast cancer cells (microsomal fraction); settings: MCF-7 microsomal fraction, 37° C., 30 minutes
T1 sequence (P08842 22-583): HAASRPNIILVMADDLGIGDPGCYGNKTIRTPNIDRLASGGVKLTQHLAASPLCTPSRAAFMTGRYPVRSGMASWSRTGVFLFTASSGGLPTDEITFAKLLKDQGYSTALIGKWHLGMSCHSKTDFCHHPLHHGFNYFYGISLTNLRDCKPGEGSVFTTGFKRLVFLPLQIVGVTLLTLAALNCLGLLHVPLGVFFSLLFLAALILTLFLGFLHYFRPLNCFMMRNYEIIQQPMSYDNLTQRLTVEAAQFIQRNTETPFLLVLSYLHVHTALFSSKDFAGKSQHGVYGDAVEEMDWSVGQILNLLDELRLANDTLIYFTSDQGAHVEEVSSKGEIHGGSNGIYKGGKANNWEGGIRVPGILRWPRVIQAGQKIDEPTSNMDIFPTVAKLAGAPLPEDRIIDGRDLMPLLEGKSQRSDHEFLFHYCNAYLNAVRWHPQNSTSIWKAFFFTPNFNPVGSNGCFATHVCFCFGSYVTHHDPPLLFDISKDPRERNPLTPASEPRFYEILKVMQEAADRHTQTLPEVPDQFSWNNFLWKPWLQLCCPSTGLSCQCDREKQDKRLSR
Procedure: (1) Measurement of Steroid Sulfatase Inhibitory Activity (in vitro):
As the source of steroid sulfatase enzyme, microsomal fraction of MCF-7 human breast cancer cells was used.
To phosphate buffered saline (PBS), one of the test compounds, the microsomal fraction and 50 μL of 60 μM estrone-3-sulfate containing about 100 nCi of [6,7-^3H]estrone-3-sulfate (purchased from Perkin Elmer Life Sciences, Boston, Mass., USA; specific activity, 40-60 Ci/mmol) were added to make the total amount of the reaction system 150 μL, which was incubated at 37° C. for 30 minutes. After the incubation, 50 μL of PBS containing about 2 nCi of [4-^14C] estrone (purchased from Perkin Elmer Life Sciences, Boston, Mass., USA; specific activity 45-60 mCi/mmol) was added and stirred. Further 800 μL of toluene was added, and the whole system was thoroughly shaken for 30 seconds, followed by centrifugation at 2,000×g for 10 minutes to separate the acqueous phase from the organic phase. A part (400 μL) of the organic phase was taken and measured of its ^3H and ^14C contents with scintillation spectrometer.
The mass of hydrolyzed [6,7-^3H]estrone-3-sulfate was calculated from the count number of the obtained ^3H (as corrected regarding the amount of the used organic phase and the recovered amount of [4-^14C]estrone) and the specific activity of the substrate ([6,7-^3H]estrone-3-sulfate) to determine the steroid sulfatase inhibitory rate of each test compound.

[1] = test system: Salmonella typhimurium TA 100, TA 1535, TA 98 and TA 1537 strains and Escherichia coli WP 2 uvrA strains; assay: Reverse mutation test using bacteria (Ames test), with and without metabolic activation; type: cell-based; settings: 10-5,000 μg/well; with and without Rat Liver S9mix
Procedure: (6) Reverse Mutation Test Using Bacteria (Ames Test) for Examining Presence of Gentic Toxicity:
Reverse mutation-inducing activity on bacteria of the test compounds was examined by reverse mutation test using bacteria (Mutat. Res., 113, 173-215). The test was conducted by plate incorporation method using Salmonella typhimurium TA 100, TA 1535, TA 98 and TA 1537 strains and Escherichia coli WP 2 uvrA strains as to both cases of not conducting metabolic activation and conducting metabolic activation. The dosages were set at six levels as 10, 50, 100, 500, 1000 and 5,000 μg/well.
Into a sterilized test tube, 0.1 mL of a test compound or a solvent, 0.5 mL of sodium-phosphate buffer (pH=7.4), 0.1 mL of a bacterial suspension and 2 mL of soft agar solution were added and mixed. Where metabolic activation was conducted, […] sodium-phosphate buffer (pH=7.4) was replaced with 0.5 mL of Rat Liver S9mix. The liquid mixture was superposed on the minimum glucose agar medium and after the superposed soft agar solution solidified, the system was cultured at 37° C. for 48 hours. At the end of the culture the number of colonies in which reverse mutation had been induced was visually counted with a colony counter. […]

## NS(=O)(=O)Oc1ccc(N2CCN(CCCC3CCCCC3)CC2)cc1F [Example 24, 4-[4-(3-cyclohexylpropyl)piperazin-1-yl]-2-fluorophenyl-O-sulfamate]
MCF-7 cells
  Absorbance relative to that of the control well (10^−6 M, %): 74.6%
Steroid sulfatase; 10^−6 M test compound
  Inhibitory rate (%) (10^−6 M): 88.8%
Steroid sulfatase; 10^−7 M test compound
  Inhibitory rate (%) (10^−7 M): 31.1%
[1]
  Ames test (reverse mutation inducing activity): negative
